Assay results taken from patent publication EP1560558B1, “USE OF 3-POSITION CYCLOSPORIN DERIVATIVES FOR HAIR GROWTH” (LG Household & Health Care Ltd., priority 2002, dated 2010).

Columns and labels:
Female C57BL/6 mice = experiment: Test for hair growth promoting effect (hair regrowth on shaved back of mice, topical application); assay type: in vivo; conditions: female C57BL/6 mice 6 to 7 weeks, hair-removed back, 100 µl (conc. 0.1% w/v) once a day for 30 days, visual approach; vehicle control 40
Method: Test Example: Test for hair growth promoting effect of cyclosporin derivatives of the invention
Female C57BL/6 mice of ages 6 to 7 weeks were utilized. After removing hairs on the middle of the back with an electric shaver, the mice were weighed and randomly assigned to the test groups with an even distribution of weights. The mice were given one day for adaptation. […] The results were determined by visual approach, in terms of degrees of hair regrowth. With respect to respective hair-removed areas, rates of new hair growth were examined and compared.

mouse's back = conditions: comparative experiments on mouse's back, relative to minoxidil; cited from earlier work

Compound | Area rate of hair regrowth (%) (Female C57BL/6 mice) | hair regrowth effect, times superior to minoxidil (mouse's back)
C/C=C/C[C@@H](C)[C@@H](O)[C@H]1C(=O)N[C@@H](CC)C(=O)N(C)[C@H](SCC)C(=O)N(C)[C@@H](CC(C)C)C(=O)N[C@@H](C(C)C)C(=O)N(C)[C@@H](CC(C)C)C(=O)N[C@@H](C)C(=O)N[C@H](C)C(=O)N(C)[C@@H](CC(C)C)C(=O)N(C)[C@@H](CC(C)C)C(=O)N(C)[C@@H](C(C)C)C(=O)N1C [Compound 1, [D-2-ethylthio-sar^3]cyclosporin A] | 90 | 
C/C=C/C[C@@H](C)[C@@H](O)[C@H]1C(=O)N[C@@H](CC)C(=O)N(C)[C@H](SCCC)C(=O)N(C)[C@@H](CC(C)C)C(=O)N[C@@H](C(C)C)C(=O)N(C)[C@@H](CC(C)C)C(=O)N[C@@H](C)C(=O)N[C@H](C)C(=O)N(C)[C@@H](CC(C)C)C(=O)N(C)[C@@H](CC(C)C)C(=O)N(C)[C@@H](C(C)C)C(=O)N1C [Compound 2, [D-2-propylthio-sar^3] cyclosporin A] | 92 | 
C/C=C/C[C@@H](C)[C@@H](O)[C@H]1C(=O)N[C@@H](CC)C(=O)N(C)[C@H](SC(C)C)C(=O)N(C)[C@@H](CC(C)C)C(=O)N[C@@H](C(C)C)C(=O)N(C)[C@@H](CC(C)C)C(=O)N[C@@H](C)C(=O)N[C@H](C)C(=O)N(C)[C@@H](CC(C)C)C(=O)N(C)[C@@H](CC(C)C)C(=O)N(C)[C@@H](C(C)C)C(=O)N1C [Compound 3, [D-2-isopropylthio-sarl^3] cyclosporin A] | 85 | 
C=CCS[C@@H]1C(=O)N(C)[C@@H](CC(C)C)C(=O)N[C@@H](C(C)C)C(=O)N(C)[C@@H](CC(C)C)C(=O)N[C@@H](C)C(=O)N[C@H](C)C(=O)N(C)[C@@H](CC(C)C)C(=O)N(C)[C@@H](CC(C)C)C(=O)N(C)[C@@H](C(C)C)C(=O)N(C)[C@@H]([C@H](O)[C@H](C)C/C=C/C)C(=O)N[C@@H](CC)C(=O)N1C [Compound 4, [D-2-allylthio-sar^3] cyclosporin A] | 90 | 
C/C=C/C[C@@H](C)[C@@H](O)[C@H]1C(=O)N[C@@H](CC)C(=O)N(C)[C@H](SCc2ccccc2)C(=O)N(C)[C@@H](CC(C)C)C(=O)N[C@@H](C(C)C)C(=O)N(C)[C@@H](CC(C)C)C(=O)N[C@@H](C)C(=O)N[C@H](C)C(=O)N(C)[C@@H](CC(C)C)C(=O)N(C)[C@@H](CC(C)C)C(=O)N(C)[C@@H](C(C)C)C(=O)N1C [Compound 5, [D-2-benzylthio-sar^3] cyclosporin A] | 90 | 
C/C=C/C[C@@H](C)[C@@H](O)[C@H]1C(=O)N[C@@H](CC)C(=O)N(C)[C@H](Sc2ccc([N+](=O)[O-])cc2)C(=O)N(C)[C@@H](CC(C)C)C(=O)N[C@@H](C(C)C)C(=O)N(C)[C@@H](CC(C)C)C(=O)N[C@@H](C)C(=O)N[C@H](C)C(=O)N(C)[C@@H](CC(C)C)C(=O)N(C)[C@@H](CC(C)C)C(=O)N(C)[C@@H](C(C)C)C(=O)N1C [Compound 6, [D-2-(4-nitrophenyl)thio-sar^3] cyclosporin A] | 89 | 
[D-2-(dimethylthiocarbamyl)dithio-sar^3] cyclosporin A [Compound 7] | 85 | 
cyclosporin |  | about 100 times
